Experimental data reported in patent US9802897B2, “Amidopyridinol derivative or pharmaceutically acceptable salt thereof and pharmaceutical composition comprising same as active component” (Research Cooperation Foundation of Yeungnam University, priority 2013, dated 2017).
Marks after values point to notes of the source that are not given here. Non-standard residues stand in square brackets, D forms with d. Residues, ends and D or L forms follow the SMILES beside them. *: point of attachment. Sta = CC(C)C[C@H](N)[C@@H](O)CC(=O)O; Isovaleryl = CC(C)CC(=O)*; Cbz = O=C(OCc1ccccc1)*; CH2F = FC*

Tests used:
MDA-MB-231 cells = experiment: Transwell invasion assay of MDA-MB-231 breast cancer cells; type: cell-based; settings: for invasion of MDA-MB-231 cells (in words): cathepsin inhibitors vs cells not treated with inhibitors
Protocol: The invasion assay was performed by using the transwell insert (BD FALCON, Bedford, USA) equipped with a 8 μm pore-sized filter. An upper part of the transwell insert filter was coated with 20 μl of matrigel (1 mg/ml) while a bottom part of the same was coated with 30 μl of type I collagen (0.5 mg/ml). The MDA-MB-231 cells (5×10^5 cells/100 μl) were added to the insert chamber, and then, each inhibitor was also added thereto. To induce invasion of the cells, a medium supplemented with 5% FBS was added to each well of the bottom chamber to allow a reaction at a temperature of 37° C. in a cell incubator. 18 hours later, the cells remained after removing the solution in the insert chamber were removed by using a cotton swab, whereas cells at the bottom of the membrane were fixed with methanol and stained with hematoxylin and eosin. The cells present at the membrane were observed through a microscope, and the number of the cells was counted in the selected 5 fields at the resolution of 200×.
According to the same manner as in Experimental Example 7, inhibitory effects of the amidopyridinol derivatives synthesized in Examples above on invasion of breast cancer cells, e.g., MDA-MB-231, were reviewed. Here, to compare with, inhibitory effects of aminopyridinol derivatives, e.g., 6-amino-2,4,5-trimethylpyridine-3-ol (BJ-1101) and 6-diphenylamino-2,4,5-trimethylpyridine-3-ol (BJ-1201), on invasion of breast cancer cells, e.g., MDA-MB-231, were reviewed.

HT-29 cells / U937 cells = experiment: TNF-α-induced adhesion of HT-29 intestinal epithelial cells and U937 mononuclear cells; type: cell-based, human; settings: 1 μM, pre-treated 1 hour, TNF-α 10 ng/ml; for inhibition at 1 µM: Homo sapiens, read-out: Inhibitory rates (%)
Protocol: HT-29 cells were cultured in a 24-well plate at a concentration of […] cells/cm^2, and meanwhile, amidopyridinol compounds 8a to 8z were pre-treated for 1 hour at each concentration in a serum-free medium supplemented only with 1% PS. Next, 10 ng/ml of TNF-α was treated therewith to allow a reaction at a temperature of 37° C. for 3 hours. After the completion of the reaction, the medium of the HT-29 cells was removed, and then, the HT-29 cells were washed with PBS once. Afterwards, U937 cells, which were treated and reacted with 10 μg/mL of BCECF-AM at a temperature of 37° C. for 30 minutes, were allowed to react with the HT-29 cells at temperature of 37° C. for 1 hour. Then, to remove U937 cells that were not adhered to the HT-29 cells, the reacted cells were washed with PBS twice. In terms of cell dissolution, 0.1% Triton X-100 in 0.1M Tris was allowed to react with the cells for 30 minutes at room temperature, and then, the cells were subjected to quantify by measuring fluorescence thereof using the Fluostar optima microplate reader (BMG Labtechnologies, Germany).

[1] = system: VEGF-induced angiogenesis in chicken chorioallantoic membrane (CAM); experiment: CAM analysis of VEGF-induced angiogenesis; type: in vivo; settings: VEGF (20 ng/CAM) + Compound (0.01 nmol/CAM), number of blood vessels after 3 days; for inhibition in vivo at 0.01 nmol/CAM: Gallus gallus, 72 h, read-out: Inhibitory rates (%)
Protocol: To confirm inhibitory effects on angiogenesis through in vivo experiments, the chorioallantoic membrane (CAM) analysis was carried out (refer to Nguyen M et al., Microvascular Res., 47, pp 31-40, 1994). A fertilized egg of a chicken was cultured in conditions maintaining a temperature of 37° C. and relative humidity of 55%. On the 10th day of the culturing, a first small hole was made on an air sac part using a hypodermic needle (Green Cross Medical Corp., Korea), and then, a second hole was made on a flat part of the fertilized egg to make a window thereon. Air was removed through the first hole, i.e., the air sac part, and accordingly, the CAM was separated from the shell of the fertilized egg. Then, a grinding wheel (Multipro 395JA, Dremel, Mexico) was used to cut the air sac part, thereby making a window thereon. Next, the whatman filter disk #1 (Whatman Company, USA) was treated with 3 mg/mL of cortisone acetate, dried, and then, wet by VEGF at a concentration of 20 ng/CAM. The filter disk was placed on blood vessels through the window, and then, compounds prepared according to Examples above were each dissolved in DMSO, diluted with PBS, and then, treated for each concentration. After 3 days of treating the compounds, the CAM part on which the filter disk was placed was isolated, and then, washed with PBS. The Stemi SV6 stereomicroscope (Carl Zeiss, Germany) and the Image-Pro Plus software (Media Cybernetics; Silver Spring, Md., USA) were used to capture images of the CAM part, so as to measure the number of the blood vessels and to analyze data obtained therefrom.

A549 lung cancer cells = experiment: CAM inoculated with A549 lung cancer cells: angiogenesis and tumor growth; type: in vivo, chicken; settings: A549 on CAM, 5 days
Protocol: To confirm inhibitory effects on angiogenesis through in vivo experiments, the CAM analysis was carried out (refer to Nguyen M et al., Microvascular Res., 47, pp 31-40, 1994). A fertilized egg of a chicken was cultured in conditions maintaining a temperature of 37° C. and relative humidity of 55%. On the 9th day of the culturing, a first small hole was made on an air sac part using a hypodermic needle (Green Cross Medical Corp., Korea), and then, a second hole was made on a flat part of the fertilized egg to make a window thereon. Air was removed through the first hole, i.e., the air sac part, and accordingly, the CAM was separated from the shell of the fertilized egg. Then, a grinding wheel (Multipro 395JA, Dremel, Mexico) was used to cut the air sac part, thereby making a window thereon. Meanwhile, A549 lung cancer cells were mixed with matrigel at a ratio of 1:1, and then, the mixture was treated with Compounds 8a, 8b, and 8g, respectively, followed by being inoculated at a density of 1.5×10^6 cells/CAM.
After 5 days of the inoculation, the CAM part on which tumors were formed was isolated, and then, washed with PBS. The Stemi SV6 stereomicroscope (Carl Zeiss, Germany) and the Image-Pro Plus software (Media Cybernetics; Silver Spring, Md., USA) were used to capture images of the CAM part, so as to measure the number of the blood vessels and to analyze data obtained therefrom.

[2] = 1 μM, MDA-MB-231 invasion, 5% FBS, 18 hours

CCCNC(=O)[C@H]1O[C@@H]1C(=O)N[C@H](C(=O)N1CCC[C@H]1C(=O)OC)[C@@H](C)CC [CA-074 Me]
Inhibition rates (%) (MDA-MB-231 cells; 1 nM, MDA-MB-231 invasion, 5% FBS, 18 hours): 19.73 ± 2.31 % | Inhibition rates (%) (MDA-MB-231 cells; 5 nM, MDA-MB-231 invasion, 5% FBS, 18 hours): 34.26 ± 2.30 % | Inhibition rates (%) (MDA-MB-231 cells; 25 nM, MDA-MB-231 invasion, 5% FBS, 18 hours): 44.45 ± 1.43 % | invasion of MDA-MB-231 cells (in words) (MDA-MB-231 cells): decreased invasion of the cells

Cc1nc(NC(=O)CC(C)C)c(C)c(C)c1O [Compound 8e, N-(5-hydroxy-3,4,6-trimethylpyridine-2-yl)-3-methylbutanamide]
inhibition at 1 µM (HT-29 cells / U937 cells): 64.2% | inhibition in vivo at 0.01 nmol/CAM [1]: 75.6 ± 8.9%

Cc1nc(NC(=O)C2CCCCC2)c(C)c(C)c1O [Compound 8h, N-(5-hydroxy-3,4,6-trimethylpyridine-2-yl)cyclohexane carboxamide]
inhibition at 1 µM (HT-29 cells / U937 cells): 64.5% | inhibition in vivo at 0.01 nmol/CAM [1]: 76.3 ± 7.2%

Cc1nc(NC(=O)Cc2ccccc2)c(C)c(C)c1O [Compound 8i, N-(5-hydroxy-3,4,6-trimethylpyridine-2-yl)-2-penylacetamide]
Inhibitory rates (%) (HT-29 cells / U937 cells): 56.6* % | Inhibitory rates (%) [1]: 69.6 ± 11.0 %

Cc1nc(NC(=O)c2ccccc2)c(C)c(C)c1O [Compound 8k, N-(5-hydroxy-3,4,6-trimethylpyridine-2-yl)benzamide]
inhibition at 1 µM (HT-29 cells / U937 cells): 18.5% | inhibition in vivo at 0.01 nmol/CAM [1]: 77.3 ± 13.1%

COc1ccc(C(=O)Nc2nc(C)c(O)c(C)c2C)cc1 [Compound 8m, N-(5-hydroxy-3,4,6-trimethylpyridine-2-yl)-4-methoxybenzamide]
inhibition at 1 µM (HT-29 cells / U937 cells): 13.9% | inhibition in vivo at 0.01 nmol/CAM [1]: 69.7 ± 4.5%

Cc1nc(NC(=O)c2ccc3c(c2)OCO3)c(C)c(C)c1O [Compound 8o, N-(5-hydroxy-3,4,6-trimethylpyridine-2-yl)benzo[d][1,3]dioxol-5-carboxamide]
inhibition at 1 µM (HT-29 cells / U937 cells): 40.2% | inhibition in vivo at 0.01 nmol/CAM [1]: 64.8 ± 17.4%

Cc1nc(NC(=O)c2cccc(O)c2)c(C)c(C)c1O [Compound 8v, 3-hydroxy-N-(5-hydroxy-3,4,6-trimethylpyridine-2-yl)benzamide]
inhibition at 1 µM (HT-29 cells / U937 cells): 54.1%

Cc1nc(NC(=O)CC(C)CC(C)(C)C)c(C)c(C)c1O (centres unmarked) [Compound 8w, N-(5-hydroxy-3,4,6-trimethylpyridine-2-yl)-3,5,5-trimethylhexanamide]
inhibition at 1 µM (HT-29 cells / U937 cells): 54.5%

Cc1nc(NC(=O)Cc2ccc(Cl)cc2)c(C)c(C)c1O [Compound 8x, 2-(4-chlorophenyl)-N-(5-hydroxy-3,4,6-trimethylpyridine-2-yl)acetamide]
inhibition at 1 µM (HT-29 cells / U937 cells): 41.5%

Cc1nc(NC(=O)C(Cl)Cl)c(C)c(C)c1O [Compound 8y, 2,2-dichloro-N-(5-hydroxy-3,4,6-trimethylpyridine-2-yl)acetamide]
inhibition at 1 µM (HT-29 cells / U937 cells): 60.6%

Cc1nc(NC(=O)C=Cc2ccccc2)c(C)c(C)c1O [Compound 8z, N-(5-hydroxy-3,4,6-trimethylpyridine-2-yl)cinnamide]
Inhibitory rates (%) (HT-29 cells / U937 cells): 25.2%

CC(C)(F)C[C@H](N[C@@H](c1ccc(-c2ccc(S(C)(=O)=O)cc2)cc1)C(F)(F)F)C(=O)NC1(C#N)CC1 [Odanacatib]
inhibition at 0.04 µM (MDA-MB-231 cells; Homo sapiens, 0.04 μM, MDA-MB-231 invasion, 5% FBS, 18 hours, read-out: Inhibition rates (%)): 14.9 ± 4.14% | inhibition at 0.2 µM (MDA-MB-231 cells; Homo sapiens, 0.2 μM, MDA-MB-231 invasion, 5% FBS, 18 hours, read-out: Inhibition rates (%)): 19.9 ± 3.77% | inhibition at 1 µM (MDA-MB-231 cells; Homo sapiens, 1 μM, MDA-MB-231 invasion, 5% FBS, 18 hours, read-out: Inhibition rates (%)): 22.3 ± 3.7%

CC(C)CC(=O)N[C@H](C(=O)N[C@H](C(=O)N[C@@H](CC(C)C)[C@@H](O)CC(=O)N[C@@H](C)C(=O)N[C@@H](CC(C)C)[C@@H](O)CC(=O)O)C(C)C)C(C)C [Pepstatin A] (Isovaleryl-VV[Sta]A[Sta]-OH)
Inhibition rates (%) (MDA-MB-231 cells; [2]): 3.42 ± 0.42% | Inhibition rates (%) (MDA-MB-231 cells; 5 μM, MDA-MB-231 invasion, 5% FBS, 18 hours): 4.04 ± 0.33% | Inhibition rates (%) (MDA-MB-231 cells; 25 μM, MDA-MB-231 invasion, 5% FBS, 18 hours): 5.54 ± 0.77%

CN(C)c1ccc(/C=C2\C(=O)Nc3ccccc32)cc1 [SU4312, reference compound]
Inhibition rates of angiogenesis (%) (A549 lung cancer cells; 0.01 pmol/CAM): 20.8 ± 1.4 % | Inhibition rates of tumor growth (%) (A549 lung cancer cells; 0.01 pmol/CAM): 16.2 ± 20.4% | Inhibition rates of angiogenesis (%) (A549 lung cancer cells; 0.1 pmol/CAM): 25.1 ± 2.8 % | Inhibition rates of tumor growth (%) (A549 lung cancer cells; 0.1 pmol/CAM): 23.4 ± 9.3% | Inhibition rates of angiogenesis (%) (A549 lung cancer cells; 1.0 pmol/CAM): 36.2 ± 1.9 % | Inhibition rates of tumor growth (%) (A549 lung cancer cells; 1.0 pmol/CAM): 26.8 ± 4.9% | Inhibitory rates (%) [1]: 74.6 ± 8.5 %

O=C(NC(Cc1ccccc1)C(=O)NC(Cc1ccccc1)C(=O)CF)OCc1ccccc1 (stereo not drawn) [Z-FF-FMK] (Cbz-Phe-Phe-CH2F; configuration not given here)
Inhibition rates (%) (MDA-MB-231 cells; 0.04 μM, MDA-MB-231 invasion, 5% FBS, 18 hours): 3.42 ± 2.08% | Inhibition rates (%) (MDA-MB-231 cells; 0.2 μM, MDA-MB-231 invasion, 5% FBS, 18 hours): 6.97 ± 2.35% | Inhibition rates (%) (MDA-MB-231 cells; [2]): 10.16 ± 2.16 %

CC(C)C[C@H](NC(=O)[C@H](Cc1ccccc1)NC(=O)OCc1ccccc1)C(=O)C=O [Z-FL-COCHO]
Inhibition rates (%) (MDA-MB-231 cells; 0.4 nM, MDA-MB-231 invasion, 5% FBS, 18 hours): 34.36 ± 3.00 % | Inhibition rates (%) (MDA-MB-231 cells; 2 nM, MDA-MB-231 invasion, 5% FBS, 18 hours): 44.67 ± 2.61 % | Inhibition rates (%) (MDA-MB-231 cells; 10 nM, MDA-MB-231 invasion, 5% FBS, 18 hours): 50.12 ± 2.76 % | invasion of MDA-MB-231 cells (in words) (MDA-MB-231 cells): decreased invasion of the cells
